Some test systems named below: HT29 colon; SN12C renal; UACC-257 melanoma; KM12 colon; RXF 393 renal; IGROV1 ovarian; NCI-H23 lung; UO-31 renal; LOX IMVI melanoma; NCI-H522 lung.
Holding throughout (experiment): NCI tumour cell line growth inhibition, 48 h

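Each compound was tested at five concentrations against cells in 96-well plates for 48 hours. GI50 = concentration required for 50% inhibition of growth. TGI denotes the concentration required for complete inhibition of growth.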

`O=C1CCCC(=O)N1CCc1c[nH]c2ccccc12`: the TGI with HT29 colon, with SN12C renal, with UACC-257 melanoma, with KM12 colon, in the assay with RXF 393 renal and in the assay on IGROV1 ovarian was greater than 100 µM in each case. In addition, the TGI with NCI-H23 lung and in the assay with UO-31 renal was greater than 100 µM in each case.

In the case of `NC1=C(c2nc(-c3ccccc3)cs2)C(c2ccc(Br)cc2)c2c(c3ccccc3oc2=O)O1` (centres undefined), the GI50 is 148 µg/mL in the assay on HT29 colon; 85.9 µg/mL with SN12C renal; greater than 150 µg/mL in the assay with UACC-257 melanoma; greater than 150 µg/mL in the assay on KM12 colon; greater than 150 µg/mL in the assay with LOX IMVI melanoma; 47.1 µg/mL with NCI-H522 lung. Also, the GI50 in the assay on RXF 393 renal was 40.7 µg/mL; in the assay on IGROV1 ovarian, 96 µg/mL; in the assay on NCI-H23 lung, 71 µg/mL. For the same compound, the TGI in the assay with HT29 colon, in the assay with SN12C renal, with UACC-257 melanoma, in the assay with KM12 colon, in the assay on LOX IMVI melanoma and with NCI-H522 lung was greater than 150 µg/mL throughout. The TGI was 141 µg/mL with RXF 393 renal, greater than 150 µg/mL in the assay with IGROV1 ovarian and greater than 150 µg/mL in the assay on NCI-H23 lung.

For the compound `Cc1cc(NS(=O)(=O)c2ccc(NC(=O)c3ccc(Cl)c4c(Nc5ccc(S(=O)(=O)N=C(N)N)cc5)c5ccccc5nc34)cc2)no1`, the TGI was greater than 100 µM in the assay on HT29 colon; greater than 100 µM with SN12C renal; greater than 100 µM with UACC-257 melanoma; greater than 100 µM in the assay with KM12 colon; 98.7 µM in the assay with LOX IMVI melanoma; 61.6 µM in the assay with NCI-H522 lung. Further, the values for the TGI with RXF 393 renal, in the assay on NCI-H23 lung and with UO-31 renal were 48.6 µM, greater than 100 µM and greater than 100 µM, respectively.

For `O=C1C2C=CC(C2)C(c2ccc(O)cc2)N1O` (centres undefined), the TGI in the assay on HT29 colon, with SN12C renal, in the assay with UACC-257 melanoma, in the assay on KM12 colon, in the assay on NCI-H522 lung and with IGROV1 ovarian was greater than 100 µM in each case. The TGI in the assay on NCI-H23 lung and in the assay on UO-31 renal was greater than 100 µM each time.

With `COC(=O)NN=C1C(C)(C)C(=O)C1(C)C`, the TGI in the assay with HT29 colon, with UACC-257 melanoma, in the assay on KM12 colon, in the assay on LOX IMVI melanoma, in the assay with NCI-H522 lung and in the assay on RXF 393 renal was greater than 100 µM throughout. The TGI with IGROV1 ovarian, in the assay on NCI-H23 lung and with UO-31 renal was greater than 100 µM each time.

With `COC(=O)[C@]12CC=C3O[C@@H]4OC5(CCCCC5)O[C@@H]4C3[C@@H]1C(=O)CCC2=O` (some centres undefined), the TGI in the assay on HT29 colon, in the assay with SN12C renal, with UACC-257 melanoma, with KM12 colon, in the assay with LOX IMVI melanoma and with NCI-H522 lung was greater than 100 µM in each case. Also, the TGI in the assay with IGROV1 ovarian, in the assay with NCI-H23 lung and in the assay with UO-31 renal was greater than 100 µM each time.

Regarding `O=C(O)CCSC(=O)Nc1ccccc1F`, the TGI in the assay with HT29 colon, in the assay with SN12C renal, with KM12 colon, with LOX IMVI melanoma, in the assay with NCI-H522 lung and in the assay on RXF 393 renal was greater than 100 µM in each case. Besides, the TGI in the assay on NCI-H23 lung and with UO-31 renal was greater than 100 µM throughout.

In the case of `COC(=O)C1=C(C(=O)OC)SC(=C(Cl)C(=S)Nc2ccccc2O)S1`, the GI50 was 30.2 µM with HT29 colon; 9.69 µM with SN12C renal; 12.4 µM in the assay on UACC-257 melanoma; 0.132 µM in the assay with KM12 colon; 12.9 µM with LOX IMVI melanoma; 10.3 µM in the assay with NCI-H522 lung. The GI50 in the assay with RXF 393 renal was 11.7 µM; in the assay with NCI-H23 lung, 6.67 µM; in the assay on UO-31 renal, 14.4 µM. The TGI was greater than 50 µM with HT29 colon; 19.7 µM in the assay with SN12C renal; 26.3 µM in the assay with UACC-257 melanoma; greater than 50 µM in the assay with KM12 colon; 24.5 µM in the assay on LOX IMVI melanoma; 23.3 µM in the assay with NCI-H522 lung. Also, the TGI amounted to 29.5 µM in the assay on RXF 393 renal, 20.1 µM with NCI-H23 lung and 39.2 µM in the assay on UO-31 renal.

With `FC(F)(F)c1ccc(C#Cc2ccccc2C#Cc2ccccc2)cc1`, the GI50 was 42.6 µM in the assay on HT29 colon; 69.5 µM with UACC-257 melanoma; 31.4 µM in the assay on KM12 colon; 26.2 µM in the assay on LOX IMVI melanoma; 21.4 µM in the assay with NCI-H522 lung; 23.4 µM in the assay with RXF 393 renal. Also, the GI50 is greater than 100 µM with IGROV1 ovarian, 49 µM in the assay with NCI-H23 lung and 49.7 µM with UO-31 renal. In addition, the TGI with HT29 colon was greater than 100 µM; in the assay on UACC-257 melanoma, greater than 100 µM; in the assay with KM12 colon, greater than 100 µM; in the assay on LOX IMVI melanoma it was 55.3 µM; with NCI-H522 lung it was 45.4 µM; in the assay with RXF 393 renal, 65.6 µM. Moreover, the TGI with IGROV1 ovarian, in the assay on NCI-H23 lung and with UO-31 renal was greater than 100 µM in each case.

In the case of `COc1ccc(S(=O)(=O)N/N=C/c2cc(I)cc([N+](=O)[O-])c2O)cc1OC`, the TGI with HT29 colon, in the assay on SN12C renal, with UACC-257 melanoma, in the assay with KM12 colon, with LOX IMVI melanoma and in the assay on IGROV1 ovarian was greater than 100 µM each time. Also, in the assay on UO-31 renal, the TGI amounted to 53.4 µM.

With `S=c1ssc(Oc2ccccc2)c1Cl`, the GI50 was 1.37 µM with HT29 colon; 11.7 µM in the assay with SN12C renal; 17.6 µM with UACC-257 melanoma; 13.2 µM in the assay with KM12 colon; 5.61 µM in the assay on LOX IMVI melanoma; 23.2 µM in the assay with NCI-H522 lung. In addition, the GI50 with RXF 393 renal is 12 µM; in the assay with NCI-H23 lung it was 12.6 µM; in the assay on UO-31 renal, 19 µM. In addition, the TGI is greater than 100 µM in the assay on HT29 colon; 28.2 µM in the assay on SN12C renal; 35.5 µM in the assay on UACC-257 melanoma; 26 µM with KM12 colon; 22.7 µM in the assay with LOX IMVI melanoma; 42.5 µM in the assay with NCI-H522 lung. For the same compound, the TGI with RXF 393 renal is 29.8 µM; with NCI-H23 lung it was 50.9 µM; in the assay with UO-31 renal, 58.8 µM.

As to `CN(C)C=[N+]=[N-]`, the TGI in the assay on HT29 colon, with SN12C renal, in the assay on UACC-257 melanoma, with KM12 colon, in the assay with NCI-H522 lung and in the assay on RXF 393 renal was greater than 100 µM in each case. The TGI in the assay on IGROV1 ovarian, in the assay with NCI-H23 lung and with UO-31 renal was greater than 100 µM throughout.

The record behind these values is PubChem BioAssay (NCI).
